#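 Interpolation was linear, between the two tested concentrations surrounding the appropriate level; five concentrations were tested over 48 hours in 96-well plates. Abbreviation: GI50, concentration required for 50% inhibition of growth.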 Active and inactive are the calls of the source. Cut-off read from the data, not from the text of the source: active = GI50 up to about 1.1 µM and inactive = higher.
# Columns and labels:
# Assay in all cases: NCI-60 cell line screen, 48 h
# [1] = system: SW-620
# [2] = system: HCT-15
# [3] = system: UACC-62
# [4] = system: SK-MEL-28
# [5] = system: OVCAR-8
# [6] = system: CAKI-1
# [7] = system: HT-29
# [8] = system: LOX IMVI
# [9] = system: MCF7
# [10] = system: SNB-19
# [11] = system: SF-295
# [12] = system: DU-145
# [13] = system: KM12
# [14] = system: HCT-116
# [15] = system: Hs-578T
# [16] = system: UO-31
# [17] = system: CCRF-CEM
# [18] = system: MDA-MB-231
# [19] = system: OVCAR-4
# [20] = system: NCI-H460
# [21] = system: SN12C
# [22] = system: MDA-N
# [23] = system: SK-OV-3
# [24] = system: M14
# [25] = system: HOP-62
# [26] = system: RXF 393
# [27] = system: OVCAR-3
# [28] = system: UACC-257
# [29] = system: COLO 205
# [30] = system: PC-3
# [31] = system: NCI/ADR-RES
# [32] = system: MOLT-4
# [33] = system: OVCAR-5
# [34] = system: SK-MEL-5
# [35] = system: Malme-3M
# [36] = system: K562
# [37] = system: MDA-MB-435
# [38] = system: IGROV-1
# [39] = system: TK-10
# [40] = system: BT-549
# [41] = system: U-251
# [42] = system: SNB-75
# [43] = system: T47D
# [44] = system: NCI-H23
# [45] = system: NCI-H522
# [46] = system: ACHN
# [47] = system: HCC 2998
# [48] = system: SK-MEL-2
# [49] = system: SF-539
# [50] = system: EKVX
# [51] = system: RPMI-8226
# [52] = system: HOP-92
# [53] = system: A498
# [54] = system: 786-0
# [55] = system: HL-60
# [56] = system: A549
# [57] = system: SF-268
# [58] = system: SR
# [59] = system: NCI-H226
structure (smiles),measurement,setting,value
O=C(NN=C1CCCCC1)NN=C1CCCCC1,GI50,[1],> 100 µM (inactive)
same,GI50,[2],> 100 µM
same,GI50,[3],> 100 µM (inactive)
same,GI50,[4],> 100 µM (inactive)
same,GI50,[5],> 100 µM (inactive)
same,GI50,[6],> 100 µM (inactive)
same,GI50,[7],> 100 µM (inactive)
same,GI50,[8],> 100 µM (inactive)
same,GI50,[9],> 100 µM (inactive)
same,GI50,[10],> 100 µM (inactive)
same,GI50,[11],> 100 µM (inactive)
same,GI50,[12],> 100 µM (inactive)
same,GI50,[13],> 100 µM (inactive)
same,GI50,[14],> 100 µM (inactive)
same,GI50,[15],> 100 µM (inactive)
same,GI50,[16],> 100 µM (inactive)
same,GI50,[17],> 100 µM (inactive)
same,GI50,[18],> 100 µM (inactive)
same,GI50,[19],> 100 µM (inactive)
same,GI50,[20],> 100 µM (inactive)
same,GI50,[21],> 100 µM (inactive)
same,GI50,[22],> 100 µM (inactive)
same,GI50,[23],> 100 µM (inactive)
same,GI50,[24],> 100 µM (inactive)
same,GI50,[25],> 100 µM (inactive)
same,GI50,[26],> 100 µM (inactive)
same,GI50,[27],> 100 µM (inactive)
same,GI50,[28],> 100 µM (inactive)
same,GI50,[29],> 100 µM (inactive)
same,GI50,[30],> 100 µM (inactive)
same,GI50,[31],> 100 µM (inactive)
same,GI50,[32],> 100 µM (inactive)
same,GI50,[33],> 100 µM (inactive)
same,GI50,[34],> 100 µM (inactive)
same,GI50,[35],> 100 µM (inactive)
same,GI50,[36],> 100 µM (inactive)
same,GI50,[37],> 100 µM (inactive)
same,GI50,[38],> 100 µM (inactive)
same,GI50,[39],> 100 µM (inactive)
same,GI50,[40],> 100 µM (inactive)
same,GI50,[41],> 100 µM (inactive)
same,GI50,[42],> 100 µM (inactive)
same,GI50,[43],> 100 µM (inactive)
same,GI50,[44],> 100 µM (inactive)
Cc1ccc(Nc2n[nH]c(=S)s2)cc1C,GI50,[1],> 100 µM (inactive)
same,GI50,[2],60.4 µM
same,GI50,[3],> 100 µM (inactive)
same,GI50,[4],57.9 µM (inactive)
same,GI50,[5],> 100 µM (inactive)
same,GI50,[6],> 100 µM (inactive)
same,GI50,[7],57.4 µM (inactive)
same,GI50,[45],60.3 µM (inactive)
same,GI50,[8],> 100 µM (inactive)
same,GI50,[46],> 100 µM (inactive)
same,GI50,[9],90.4 µM (inactive)
same,GI50,[10],> 100 µM (inactive)
same,GI50,[11],79.6 µM (inactive)
same,GI50,[12],> 100 µM (inactive)
same,GI50,[13],78.5 µM (inactive)
same,GI50,[14],> 100 µM (inactive)
same,GI50,[15],> 100 µM (inactive)
same,GI50,[16],> 100 µM (inactive)
same,GI50,[17],72.9 µM (inactive)
same,GI50,[18],> 100 µM (inactive)
same,GI50,[19],89.9 µM (inactive)
same,GI50,[20],59 µM (inactive)
same,GI50,[21],> 100 µM (inactive)
same,GI50,[47],70.6 µM (inactive)
same,GI50,[48],> 100 µM (inactive)
same,GI50,[49],> 100 µM (inactive)
same,GI50,[22],40.6 µM (inactive)
same,GI50,[23],> 100 µM (inactive)
same,GI50,[50],> 100 µM (inactive)
same,GI50,[51],81.5 µM (inactive)
same,GI50,[24],> 100 µM (inactive)
same,GI50,[25],> 100 µM (inactive)
same,GI50,[26],> 100 µM (inactive)
same,GI50,[27],> 100 µM (inactive)
same,GI50,[28],> 100 µM (inactive)
same,GI50,[29],66.1 µM (inactive)
same,GI50,[30],> 100 µM (inactive)
same,GI50,[31],> 100 µM (inactive)
same,GI50,[52],> 100 µM (inactive)
same,GI50,[32],59.3 µM (inactive)
same,GI50,[33],> 100 µM (inactive)
same,GI50,[34],68.2 µM (inactive)
same,GI50,[53],58.7 µM (inactive)
same,GI50,[54],> 100 µM (inactive)
same,GI50,[35],> 100 µM (inactive)
same,GI50,[55],71.1 µM (inactive)
same,GI50,[36],64.1 µM (inactive)
same,GI50,[56],79.4 µM (inactive)
same,GI50,[37],53.5 µM (inactive)
same,GI50,[38],> 100 µM (inactive)
same,GI50,[39],> 100 µM (inactive)
same,GI50,[40],> 100 µM (inactive)
same,GI50,[41],92.7 µM (inactive)
same,GI50,[42],> 100 µM (inactive)
same,GI50,[43],27.4 µM (inactive)
same,GI50,[57],> 100 µM (inactive)
same,GI50,[44],> 100 µM (inactive)
CC(CO)(CO)Nc1ncnc2ccccc12,GI50,[1],> 100 µM (inactive)
same,GI50,[2],> 100 µM
same,GI50,[3],> 100 µM (inactive)
same,GI50,[4],> 100 µM (inactive)
same,GI50,[5],> 100 µM (inactive)
same,GI50,[6],> 100 µM (inactive)
same,GI50,[7],> 100 µM (inactive)
same,GI50,[45],> 100 µM (inactive)
same,GI50,[8],> 100 µM (inactive)
same,GI50,[46],> 100 µM (inactive)
same,GI50,[10],> 100 µM (inactive)
same,GI50,[11],> 100 µM (inactive)
same,GI50,[12],> 100 µM (inactive)
same,GI50,[13],> 100 µM (inactive)
same,GI50,[14],> 100 µM (inactive)
same,GI50,[58],66.1 µM (inactive)
same,GI50,[15],> 100 µM (inactive)
same,GI50,[16],> 100 µM (inactive)
same,GI50,[17],> 100 µM (inactive)
same,GI50,[18],> 100 µM (inactive)
same,GI50,[19],> 100 µM (inactive)
same,GI50,[20],> 100 µM (inactive)
same,GI50,[21],> 100 µM (inactive)
same,GI50,[47],> 100 µM (inactive)
same,GI50,[48],> 100 µM (inactive)
same,GI50,[22],> 100 µM (inactive)
same,GI50,[50],66.8 µM (inactive)
same,GI50,[24],> 100 µM (inactive)
same,GI50,[25],> 100 µM (inactive)
same,GI50,[26],> 100 µM (inactive)
same,GI50,[27],> 100 µM (inactive)
same,GI50,[59],> 100 µM (inactive)
same,GI50,[28],> 100 µM (inactive)
same,GI50,[30],> 100 µM (inactive)
same,GI50,[31],> 100 µM (inactive)
same,GI50,[52],> 100 µM (inactive)
same,GI50,[32],> 100 µM (inactive)
same,GI50,[33],> 100 µM (inactive)
same,GI50,[34],50.1 µM (inactive)
same,GI50,[53],> 100 µM (inactive)
same,GI50,[54],> 100 µM (inactive)
same,GI50,[35],> 100 µM (inactive)
same,GI50,[36],> 100 µM (inactive)
same,GI50,[56],> 100 µM (inactive)
same,GI50,[37],> 100 µM (inactive)
same,GI50,[38],> 100 µM (inactive)
same,GI50,[39],> 100 µM (inactive)
same,GI50,[40],> 100 µM (inactive)
same,GI50,[41],> 100 µM (inactive)
same,GI50,[42],> 100 µM (inactive)
same,GI50,[43],> 100 µM (inactive)
same,GI50,[57],> 100 µM (inactive)
same,GI50,[44],> 100 µM (inactive)
